Measured values taken from the supplement of paper PMC10307832.

Experiments:
Experiment in all cases: relative viability (nuclei count vs DMSO), 5 days (fraction); higher = more cells survive
NVP-TAE684 + Foretinib = compound: COc1cc(N2CCC(N3CCN(C)CC3)CC2)ccc1Nc1ncc(Cl)c(Nc2ccccc2S(=O)(=O)C(C)C)n1 [NVP-TAE684] + COc1cc2c(Oc3ccc(NC(=O)C4(C(=O)Nc5ccc(F)cc5)CC4)cc3F)ccnc2cc1OCCCN1CCOCC1 [Foretinib] (partner 0.25 µM)
How it was run: (§1)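 Dosing by pin tool came one day after lung cancer cell lines were seeded in 1536-well plates, using either one drug or a fixed anchor-drug dose plus five library-drug doses (not always all listed) in √10 steps. After 5 days, nuclei were counted on 4× images. Relative viability is treated-well nuclei count divided by vehicle-well nuclei count, and values are medians of duplicate plates.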

CUDC-101 + Crizotinib = compound: C#Cc1cccc(Nc2ncnc3cc(OC)c(OCCCCCCC(=O)NO)cc23)c1 [CUDC-101] + C[C@@H](Oc1cc(-c2cnn(C3CCNCC3)c2)cnc1N)c1c(Cl)ccc(F)c1Cl [Crizotinib] (partner 1 µM)
How it was run: as §1

Vandetanib + Olaparib = compound: COc1cc2/c(=N/c3ccc(Br)cc3F)nc[nH]c2cc1OCC1CCN(C)CC1 [Vandetanib] + O=C(c1cc(Cc2n[nH]c(=O)c3ccccc23)ccc1F)N1CCN(C(=O)C2CC2)CC1 [Olaparib] (partner 8 µM)
How it was run: as §1

CUDC-101 + Bortezomib = compound: C#Cc1cccc(Nc2ncnc3cc(OC)c(OCCCCCCC(=O)NO)cc23)c1 [CUDC-101] + CC(C)C[C@H](NC(=O)[C@H](Cc1ccccc1)NC(=O)c1cnccn1)B(O)O [Bortezomib] (partner 0.002 µM)
How it was run: as §1

Row | Cell Line | relative viability (NVP-TAE684 + Foretinib; first compound 0.2 µM) | relative viability (NVP-TAE684 + Foretinib; first compound 0.6325 µM) | relative viability (NVP-TAE684 + Foretinib; first compound 2 µM) | relative viability (CUDC-101 + Crizotinib; first compound 0.01 µM) | relative viability (CUDC-101 + Crizotinib; first compound 0.03162 µM) | relative viability (CUDC-101 + Crizotinib; first compound 0.1 µM) | relative viability (CUDC-101 + Crizotinib; first compound 0.3162 µM) | relative viability (CUDC-101 + Crizotinib; first compound 1 µM) | relative viability (Vandetanib + Olaparib; first compound 0.02 µM) | relative viability (Vandetanib + Olaparib; first compound 0.06325 µM) | relative viability (Vandetanib + Olaparib; first compound 0.2 µM) | relative viability (Vandetanib + Olaparib; first compound 0.6325 µM) | relative viability (Vandetanib + Olaparib; first compound 2 µM) | relative viability (CUDC-101 + Bortezomib; first compound 0.01 µM) | relative viability (CUDC-101 + Bortezomib; first compound 0.03162 µM) | relative viability (CUDC-101 + Bortezomib; first compound 0.1 µM) | relative viability (CUDC-101 + Bortezomib; first compound 0.3162 µM) | relative viability (CUDC-101 + Bortezomib; first compound 1 µM)
1 | NCI-H1666 | 0.973 | 0.899 | 0.801 | 0.91 | 0.969 | 1.15 | 1.09 | 0.791 | 0.787 | 0.749 | 0.812 | 0.758 | 0.754 | 0.967 | 0.824 | 0.805 | 0.867 | 0.721
2 | NCI-H1703 | 0.388 | 0.325 | 0.331 | 1.07 | 0.707 | 0.765 | 0.712 | 0.477 | 0.458 | 0.267 | 0.385 | 0.342 | 0.303 | 0.401 | – | 0.305 | 0.194 | 0.13
3 | NCI-H1734 | 0.802 | 0.824 | 0.354 | 0.778 | 0.699 | 0.566 | 0.583 | 0.397 | 0.58 | 0.576 | 0.679 | 0.612 | 0.572 | 1.12 | 0.919 | 0.874 | 0.956 | 0.478
4 | NCI-H1755 | 1.03 | 0.897 | 0.761 | 0.81 | 0.896 | 0.828 | 0.942 | 0.743 | 0.917 | 0.863 | 0.848 | 0.822 | 0.863 | 0.985 | 1.06 | 0.88 | 0.933 | 0.79
5 | NCI-H1915 | 1.04 | 1.1 | 0.902 | 0.982 | 0.941 | 0.889 | 0.837 | 0.627 | 0.244 | 0.227 | 0.265 | 0.231 | 0.24 | 1.01 | 1.01 | 0.982 | 0.936 | 0.836
6 | NCI-H1975 | 1.2 | 0.911 | 0.497 | 1.05 | 1.02 | 0.964 | 1.1 | 0.872 | 0.807 | 0.733 | 0.795 | 0.684 | 0.716 | 0.418 | 0.361 | 0.427 | 0.362 | 0.165
7 | NCI-H1993 | 0.766 | 0.746 | 0.553 | 0.93 | 0.783 | 0.766 | 0.754 | 0.77 | 1.06 | 0.977 | 1.16 | 0.911 | 0.893 | 1.19 | 1.12 | 0.782 | 0.995 | 0.611
8 | NCI-H2009 | 1.07 | 1.14 | 1.09 | 1.02 | 0.992 | 1.11 | 0.991 | 1.03 | 0.649 | 0.668 | 0.658 | 0.688 | 0.716 | 1.01 | 1.04 | 1.05 | 1.04 | 0.889
9 | NCI-H2023 | 0.656 | 0.739 | 0.461 | 0.623 | 0.602 | 0.622 | 0.628 | 0.558 | 0.464 | 0.473 | 0.484 | 0.466 | 0.479 | 0.932 | 0.935 | 1.08 | 1.26 | 0.844
10 | NCI-H2085 | 0.987 | 0.967 | 0.485 | 0.865 | 0.861 | 0.772 | 0.779 | 0.682 | 0.77 | 0.72 | 0.808 | 0.769 | 0.712 | 1.07 | 1.08 | 0.97 | 1.06 | 0.915
11 | NCI-H2087 | 1.05 | 1.2 | 0.638 | 0.798 | 0.959 | 0.804 | 0.855 | 0.642 | 0.497 | 0.567 | 0.644 | 0.613 | 0.639 | 0.813 | 0.871 | 0.614 | 0.754 | 0.445
12 | NCI-H2126 | 1.13 | 1.22 | 0.84 | 1.07 | 1.08 | 1.01 | 1.01 | 0.866 | 0.883 | 0.888 | 0.818 | 0.923 | 0.88 | 1.12 | 1.14 | 1.1 | 1.08 | 1.01
13 | NCI-H2228 | 0.445 | 0.238 | 0.123 | 0.46 | 0.551 | 0.492 | 0.411 | 0.318 | 0.65 | 0.566 | 0.719 | 0.661 | 0.559 | 1.11 | 1.2 | 1.18 | 0.97 | 0.279
14 | NCI-H2347 | – | 1.15 | 0.521 | 0.749 | 0.68 | 0.714 | 0.673 | 0.721 | 0.538 | 0.525 | 0.596 | 0.692 | 0.553 | 0.94 | 1.05 | 0.866 | 0.95 | 0.805
15 | NCI-H2405 | 1 | 0.966 | 0.575 | 0.809 | 0.788 | 0.843 | 0.924 | 0.765 | 0.835 | 0.816 | 0.895 | 0.948 | 0.837 | 0.969 | 1.04 | 0.936 | 1.02 | 0.982
16 | NCI-H3122 | 0.218 | 0.274 | 0.101 | 0.265 | 0.282 | 0.271 | 0.317 | 0.265 | 0.617 | 0.576 | 0.232 | 0.567 | 0.621 | 1.06 | 0.984 | 1.05 | 1.01 | 1.01
17 | PC-3 [JPC-3] | 1.2 | 0.99 | 0.793 | 0.983 | 0.97 | 0.82 | 0.82 | 0.278 | 1.06 | 0.961 | 1.06 | 0.747 | 0.557 | 0.885 | 0.927 | 0.779 | 0.642 | 0.629
18 | PC-14 | 0.689 | 1.12 | 1.03 | 0.935 | 0.825 | 0.848 | 0.76 | 0.301 | 0.25 | 0.248 | 0.26 | 0.217 | 0.117 | 1.07 | 0.978 | 0.89 | 0.596 | 0.219
